In patent publication US20260317347A1, “MACROCYCLIC COMPOUNDS AND THERAPEUTIC USES THEREOF” (SUNRISE ONCOLOGY (HONG KONG) LIMITED, priority 2023, published 2026):
“Also recorded” adds a separate entry of the source.

Experiments:
[1] = biological target: HRAS WT GTP + RAF1 + CYPA (Homo sapiens, UniProt P01112+P62937); experiment: Ras: RAF1 HTRF Assay (RAS-GTP & Raf disruption); assay type: biochemical; details: 1 h incubation, room temperature
Protocol: (§1) This example is to verify the binding between RAS protein and its interacting protein (SOS1 or RAF1). When RAS exists with SOS1 or RAF, the two interact to make the energy donor and receptor bound to it close enough, and then when the donor is excited by an external light source, energy resonance transfer occurs, thereby exciting the receptor and emitting a specific wavelength of emitted light, the FRET signal is detected.
(§2) Specific experimental methods: 20 nM purified RAS protein (e.g. KRAS-G12D, G12V, G12C, WT; NRAS-WT) was incubated with the drug to be screened (the drug was diluted in a 3-fold gradient to a final concentration of 1000 nM) at room temperature for 1 h. Subsequently, 30 nM purified SOS1-Cat was added and incubated at room temperature for 0.5-1 h. After adding the detection antibody (PerkinElmer, Cisbio, HTRF antibody), the value was measured according to the manufacturer's instructions.

[2] = biological target: KRAS G12C GTP + RAF1 + CYPA (Homo sapiens, UniProt P01116+P62937, G12C); experiment: Ras: RAF1 HTRF Assay (RAS-GTP & Raf disruption); assay type: biochemical; details: 1 h incubation, room temperature
Protocol: as §1, §2

[3] = biological target: KRAS G12D GTP + RAF1 + CYPA (Homo sapiens, UniProt P01116+P62937, G12D); experiment: Ras: RAF1 HTRF Assay (RAS-GTP & Raf disruption); assay type: biochemical; details: 1 h incubation, room temperature
Protocol: as §1, §2

[4] = biological target: KRAS G12R GTP + RAF1 + CYPA (Homo sapiens, UniProt P01116+P62937, G12R); experiment: Ras: RAF1 HTRF Assay (RAS-GTP & Raf disruption); assay type: biochemical; details: 1 h incubation, room temperature
Protocol: as §1, §2

[5] = biological target: KRAS G12V GTP + RAF1 + CYPA (Homo sapiens, UniProt P01116+P62937, G12V); experiment: Ras: RAF1 HTRF Assay (RAS-GTP & Raf disruption); assay type: biochemical; details: 1 h incubation, room temperature
Protocol: as §1, §2

[6] = biological target: KRAS G12S GTP + RAF1 + CYPA (Homo sapiens, UniProt P01116+P62937, G12S); experiment: Ras: RAF1 HTRF Assay (RAS-GTP & Raf disruption); assay type: biochemical; details: 1 h incubation, room temperature
Protocol: as §1
as §2, with “Subsequently, 30 nM purified SOS1-Cat was added and incubated at room temperature for 0.5-1 h.” left out

[7] = biological target: KRAS Q61H GTP + RAF1 + CYPA (Homo sapiens, UniProt P01116+P62937, Q61H); experiment: Ras: RAF1 HTRF Assay (RAS-GTP & Raf disruption); assay type: biochemical; details: 1 h incubation, room temperature
[8] = test system: RAF1 with active KRAS mutant protein or HRAS WT protein; experiment: Ras: RAF1 HTRF Assay, overall statement; assay type: biochemical; details: in words; FIG. 1
A375 (BRAF V600E) cells = experiment: Cell Viability Assay (MTS); assay type: cell-based; details: RAS-independent, 5 days, FIG. 2
From the text: (§3) Selective screening using RAS-driven and RAS-non-driven cells: (1) RAS-driven cells, including cells with persistent RAS activation due to RAS mutations and upstream EGFR activation. Cells that are continuously activated due to RAS mutations, such as KRAS G12D (AsPC-1, HPAC, etc.) mutant cells, KRAS G12C (NCI-H358, MIAPaCa-2, etc.) KRAS G13D (LOVO, HCT15, etc.) mutant cells, etc. Cells with continuous activation of RAS due to EGFR mutations, such as EGFREx19del (PC-9, etc.) mutant cells, EGFRT790M/L858R (NCI-H1975, etc.) mutant cells, etc.; (2) Non-RAS driven cells, including BRAFV600E (A375, SK)-MEL-3, etc.) mutant cells, RASWT (BxPC-3, etc.) cells, etc.
(§4) Specific experimental methods: The above cells were seeded in a 96-well plate at a density of 1000-10000 per well. Drugs were diluted in DMSO to make a 10 mM stock solution. Subsequently, the drug was diluted in a 3-fold gradient to a final concentration of 1000 nM. The cells were treated with the drug for 5 days. Cell viability was then detected by the MTS method.

AGS (KRAS G12D) cells = experiment: Cell Viability Assay (MTS); assay type: cell-based; details: 5 days, FIG. 2
From the text: as §3, §4

HepG2 (NRAS Q61L) cells = experiment: Cell Viability Assay (MTS); assay type: cell-based; details: 5 days, FIG. 2
From the text: as §3, §4

LOVO (KRAS G13D) cells = experiment: Cell Viability Assay (MTS); assay type: cell-based; details: 5 days, FIG. 2
From the text: as §3, §4

[9] = test system: NCI-H1975 (EGFR T790M/L858R) cells; experiment: Cell Viability Assay (MTS); assay type: cell-based; details: 5 days, FIG. 2
From the text: as §3, §4

SW620 (KRAS G12V) cells = experiment: Cell Viability Assay (MTS); assay type: cell-based; details: 5 days, FIG. 2
From the text: as §3, §4

RAS dependent cells = experiment: Cell Viability Assay (MTS), overall statement; assay type: cell-based; details: FIG. 2
From the text: as §3, §4

KRAS G12C GTP + RAF1 + CYPA, sequence (P01116 1-188 isoform P01116-2 G12C): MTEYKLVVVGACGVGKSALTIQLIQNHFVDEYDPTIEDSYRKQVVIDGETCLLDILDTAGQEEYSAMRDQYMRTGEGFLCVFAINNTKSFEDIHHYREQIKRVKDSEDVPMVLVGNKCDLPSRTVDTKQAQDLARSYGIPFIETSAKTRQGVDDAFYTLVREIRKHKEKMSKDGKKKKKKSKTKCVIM
KRAS G12C GTP + RAF1 + CYPA, sequence (P62937 whole entry): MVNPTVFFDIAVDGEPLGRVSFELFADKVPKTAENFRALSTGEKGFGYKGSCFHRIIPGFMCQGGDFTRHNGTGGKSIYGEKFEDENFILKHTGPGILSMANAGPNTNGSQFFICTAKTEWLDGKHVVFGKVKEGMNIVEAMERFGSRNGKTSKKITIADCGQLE
HRAS WT GTP + RAF1 + CYPA, sequence (P01112 whole entry): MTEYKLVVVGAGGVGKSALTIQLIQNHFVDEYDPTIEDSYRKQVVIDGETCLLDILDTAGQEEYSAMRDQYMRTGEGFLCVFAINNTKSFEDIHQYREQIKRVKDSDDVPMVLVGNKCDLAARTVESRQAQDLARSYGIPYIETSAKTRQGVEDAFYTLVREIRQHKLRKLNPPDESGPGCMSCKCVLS
HRAS WT GTP + RAF1 + CYPA, sequence (P62937 whole entry): as the sequence (P62937 whole entry) above
KRAS G12D GTP + RAF1 + CYPA, sequence (P01116 1-188 isoform P01116-2 G12D): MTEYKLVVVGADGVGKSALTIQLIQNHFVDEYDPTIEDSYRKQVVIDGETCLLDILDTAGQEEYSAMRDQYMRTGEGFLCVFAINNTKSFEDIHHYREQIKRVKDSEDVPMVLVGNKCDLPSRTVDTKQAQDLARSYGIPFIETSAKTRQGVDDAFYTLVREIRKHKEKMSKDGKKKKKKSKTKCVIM
KRAS G12D GTP + RAF1 + CYPA, sequence (P62937 whole entry): as the sequence (P62937 whole entry) above
KRAS Q61H GTP + RAF1 + CYPA, sequence (P01116 1-188 isoform P01116-2 Q61H): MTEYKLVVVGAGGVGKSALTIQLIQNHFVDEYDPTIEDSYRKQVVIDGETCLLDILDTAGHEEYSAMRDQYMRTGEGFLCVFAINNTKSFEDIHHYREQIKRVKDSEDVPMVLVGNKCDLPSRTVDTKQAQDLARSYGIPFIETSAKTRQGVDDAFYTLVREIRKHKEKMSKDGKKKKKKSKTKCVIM
KRAS Q61H GTP + RAF1 + CYPA, sequence (P62937 whole entry): as the sequence (P62937 whole entry) above
KRAS G12V GTP + RAF1 + CYPA, sequence (P01116 1-188 isoform P01116-2 G12V): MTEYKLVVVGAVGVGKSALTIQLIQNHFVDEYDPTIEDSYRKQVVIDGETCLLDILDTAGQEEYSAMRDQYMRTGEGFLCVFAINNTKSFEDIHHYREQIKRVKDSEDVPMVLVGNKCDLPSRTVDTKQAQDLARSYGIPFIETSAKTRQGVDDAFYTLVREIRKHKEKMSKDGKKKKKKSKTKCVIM
KRAS G12V GTP + RAF1 + CYPA, sequence (P62937 whole entry): as the sequence (P62937 whole entry) above
KRAS G12S GTP + RAF1 + CYPA, sequence (P01116 1-188 isoform P01116-2 G12S): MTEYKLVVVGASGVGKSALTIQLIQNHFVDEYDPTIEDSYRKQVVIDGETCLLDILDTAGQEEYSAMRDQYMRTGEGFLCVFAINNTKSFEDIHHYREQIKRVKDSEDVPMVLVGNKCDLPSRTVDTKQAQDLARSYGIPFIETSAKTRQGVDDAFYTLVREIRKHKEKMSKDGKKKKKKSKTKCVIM
KRAS G12S GTP + RAF1 + CYPA, sequence (P62937 whole entry): as the sequence (P62937 whole entry) above
KRAS G12R GTP + RAF1 + CYPA, sequence (P01116 1-188 isoform P01116-2 G12R): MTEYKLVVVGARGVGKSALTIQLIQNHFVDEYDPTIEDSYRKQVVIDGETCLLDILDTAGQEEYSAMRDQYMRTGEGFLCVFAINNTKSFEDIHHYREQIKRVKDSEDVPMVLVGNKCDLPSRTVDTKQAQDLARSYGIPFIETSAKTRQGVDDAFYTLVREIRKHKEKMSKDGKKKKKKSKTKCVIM
KRAS G12R GTP + RAF1 + CYPA, sequence (P62937 whole entry): as the sequence (P62937 whole entry) above

IC50 [1]: 467.8 ± 4.6 nM | IC50 [2]: 15.8 ± 3.97 nM | IC50 [3]: 55.9 ± 8.92 nM | IC50 [4]: 729 ± 106 nM | IC50 [5]: 165 ± 7.92 nM | IC50 [6]: 19.6 ± 1.03 nM | IC50 [7]: 31.24 ± 0.3 nM
Compound: CCn1c(-c2cc(P(C)(C)=O)ccc2[C@H](C)OC)c2c3cc(ccc31)-c1cc(O)cc(c1)C[C@H](NC(=O)[C@H](C(C)C)N(C)C(=O)[C@@H]1OCC[C@@H]1c1ccccc1)C(=O)N1CCC[C@H](N1)C(=O)OCC(C)(C)C2 [Example 2, (2R,3R)—N-((2S)-1-(((6^3S,4S)-1^2-(5-(dimethylphosphoryl)-2-((S)-1-methoxyethyl)phenyl)-1^1-ethyl-2^5-hydroxy-10,10-dimethyl-5,7-dioxo-6^1,6^2,6^3,6^4,6^5,6^6-hexahydro-1^1H-8-oxa-1(5,3)-indola-6(1,3)-pyridazina-2(1,3)-benzenacycloundecaphane-4-yl)amino)-3-methyl-1-oxobutan-2-yl)-N-methyl-3-phenyltetrahydrofuran-2-carboxamide]
inhibition of the interaction of RAF1 with active KRAS mutant protein or HRAS WT protein [8]: potently inhibited; also recorded: significantly inhibited | inhibition of cell viability (A375 (BRAF V600E) cells): relative insensitive | inhibition of cell viability (AGS (KRAS G12D) cells): significantly inhibited | inhibition of cell viability (HepG2 (NRAS Q61L) cells): significantly inhibited | inhibition of cell viability (LOVO (KRAS G13D) cells): significantly inhibited | inhibition of cell viability [9]: significantly inhibited | inhibition of cell viability (SW620 (KRAS G12V) cells): significantly inhibited | inhibition of cell viability (RAS dependent cells): potently inhibited
